Earlier results on two molecules are cited in patent publication US5891889A, “Inhibitors of farnesyl-protein transferase” (Merck & Co., Inc., priority 1997, dated 1999).

For this data set, the system named is farnesyl-protein transferase. To be noted: via inhibition of HMG-CoA reductase; literature.

Molecules are shown by their SMILES.

Consider `CC[C@H](C)C(=O)O[C@H]1CCC=C2C=C[C@H](C)[C@H](CC[C@@H]3C[C@@H](O)CC(=O)O3)[C@H]21` [compactin], for which the “Indirect inhibition of farnesyl-protein transferase in vivo” value was “Indirect inhibition of farnesyl-protein transferase in vivo has been demonstrated”.

As for `CC[C@H](C)C(=O)O[C@H]1C[C@@H](C)C=C2C=C[C@H](C)[C@H](CC[C@@H]3C[C@@H](O)CC(=O)O3)[C@H]21` [lovastatin], the “Indirect inhibition of farnesyl-protein transferase in vivo” value is “Indirect inhibition of farnesyl-protein transferase in vivo has been demonstrated”.
